ChEMBL document CHEMBL4130451, “Design and Synthesis of N-Aryl Phenoxyethoxy Pyridinones as Highly Selective and CNS Penetrant mGlu3 NAMs” (ACS Med Chem Lett, 2017)
pIC50: −log10 of the molar value. Values after ≈ are worked out from the molar mass of the structure shown. Active and inactive are the calls of the source. The calls are words filed in the database; no cut-off is given here.

How the values were obtained:
[1] = target: Metabotropic glutamate receptor 8 (Rattus norvegicus) (UniProt P70579); test: Negative allosteric modulation of rat mGlu8 receptor expressed in HEK/GIRK cells assessed as inhibition of glutamate induced-calcium mobilization preincubated for 2.3 mins followed by glutamate addition measured for 2.6 mins by Fluo-4 AM dye based fluorescence assay; type: functional, cell-based
[2] = target: B2 bradykinin receptor (Homo sapiens) (UniProt P30411); test: Inhibition of human bradykinin B2 receptor at 10 uM relative to control
Rattus norvegicus [3] = species on record: Rattus norvegicus; test: Inhibition of rat rolipram binding site at 10 uM relative to control
[4] = target: Epidermal growth factor receptor (Homo sapiens) (UniProt P00533); test: Inhibition of human EGF receptor at 10 uM relative to control
Rattus norvegicus [5] = species on record: Rattus norvegicus; test: Inhibition of rat central GABA-A receptor muscimol site at 10 uM relative to control
[6] = Kinetic solubility of the compound in PBS at pH 7.4; type: physicochemical; settings: read-out: Kinetic_solubility
Rattus norvegicus [7] = species on record: Rattus norvegicus; test: Inhibition of rat central GABA-A receptor flunitrazepam site at 10 uM relative to control
[8] = target: Delta-type opioid receptor (Homo sapiens) (UniProt P41143); test: Inhibition of human delta 1 opioid receptor at 10 uM relative to control
[9] = target: L-type calcium channel, benzodiazepine site (Rattus norvegicus, UniProt P22002+P27732+Q02485); test: Inhibition of rat L-type calcium channel benzodiazepine site at 10 uM relative to control; type: protein assay
[10] = target: Adenosine receptor A1 (Homo sapiens) (UniProt P30542); test: Inhibition of human adenosine A1 receptor at 10 uM relative to control
[11] = target: Sodium-dependent noradrenaline transporter (Homo sapiens) (UniProt P23975); test: Inhibition of human NET at 10 uM relative to control
Rattus norvegicus [12] = species on record: Rattus norvegicus; test: Inhibition of rat GABA receptor at 10 uM relative to control
Rattus norvegicus [13] = species on record: Rattus norvegicus; test: Inhibition of rat thyroid hormone receptor at 10 uM relative to control
Rattus norvegicus [14] = species on record: Rattus norvegicus; test: Inhibition of rat kainate glutamate receptor at 10 uM relative to control
[15] = target: Metabotropic glutamate receptor 4 (Rattus norvegicus) (UniProt P31423); test: Negative allosteric modulation of rat mGlu4 receptor expressed in HEK/GIRK cells assessed as inhibition of glutamate induced-calcium mobilization preincubated for 2.3 mins followed by glutamate addition measured for 2.6 mins by Fluo-4 AM dye based fluorescence assay; type: functional, cell-based
[16] = target: Substance-P receptor (Homo sapiens) (UniProt P25103); test: Inhibition of human tachykinin NK1 receptor at 10 uM relative to control
[17] = target: B1 bradykinin receptor (Homo sapiens) (UniProt P46663); test: Inhibition of human bradykinin B1 receptor at 10 uM relative to control
Mus musculus [18] = test: Antidepressant activity in CD-1 mouse assessed as reduction in immobility time at 3 mg/kg administered ip 15 mins prior to test measured for 6 mins by tail suspension test; type: functional, organism-based
[19] = target: Neuropeptide Y receptor type 1 (Homo sapiens) (UniProt P25929); test: Inhibition of human […] Y1 receptor at 10 uM relative to control
Cytochrome P450 1A2 = Cytochrome P450 1A2 (Homo sapiens, UniProt P05177); test: Inhibition of CYP1A2 in human liver microsomes using phenacetin as substrate after 15 mins in presence of NADPH by LC/MS/MS analysis; type: ADME
[20] = target: 5-hydroxytryptamine receptor 2B (Homo sapiens) (UniProt P41595); test: Inhibition of human 5-HT2B receptor at 10 uM relative to control
[21] = Unbound brain to plasma concentration ratio in Harlan CD-1 mouse at 3 mg/kg, ip by LC/MS-MS analysis; type: ADME, organism-based; settings: read-out: K(p,uu,brain)
[22] = target: Kappa-type opioid receptor (Homo sapiens) (UniProt P41145); test: Inhibition of human kappa opioid receptor at 10 uM relative to control
[23] = target: Sodium-dependent serotonin transporter (Homo sapiens) (UniProt P31645); test: Inhibition of human SERT at 10 uM relative to control
[24] = target: Metabotropic glutamate receptor 2 (Rattus norvegicus, UniProt P31421); test: Negative allosteric modulation of rat mGlu2 receptor expressed in HEK293 cells coexpressing Galpha15 assessed as inhibition of glutamate induced-calcium mobilization preincubated for 2.3 mins followed by glutamate addition measured for 1.9 mins by Fluo-4 AM dye based fluorescence assay; type: functional, cell-based
[25] = target: Prostaglandin E2 receptor EP4 subtype (Homo sapiens) (UniProt P35408); test: Inhibition of human EP4 receptor at 10 uM relative to control
[26] = Brain to plasma partition coefficient, Kp of the compound in rat; type: ADME
[27] = target: Mu-type opioid receptor (Homo sapiens) (UniProt P35372); test: Inhibition of human mu opioid receptor at 10 uM relative to control
Cytochrome P450 2D6 = Cytochrome P450 2D6 (Homo sapiens, UniProt P10635); test: Inhibition of CYP2D6 in human liver microsomes using dextromethorphan as substrate after 15 mins in presence of NADPH by LC/MS/MS analysis; type: ADME
[28] = target: Cysteinyl leukotriene receptor 1 (Homo sapiens) (UniProt Q9Y271); test: Inhibition of human cysteinyl cys leukotriene receptor 1 at 10 uM relative to control
[29] = target: Gamma-aminobutyric acid type B receptor subunit 1 (Homo sapiens) (UniProt Q9UBS5); test: Inhibition of human GABA-B1A receptor at 10 uM relative to control
[30] = target: Adenosine receptor A3 (Homo sapiens) (UniProt P0DMS8); test: Inhibition of human adenosine A3 receptor at 10 uM relative to control
[31] = Brain to plasma partition coefficient, Kp of the compound in Harlan CD-1 mouse at 3 mg/kg, ip by LC/MS-MS analysis; type: ADME, organism-based
[32] = target: 5-hydroxytryptamine receptor 3A (Homo sapiens) (UniProt P46098); test: Inhibition of human 5-HT3 receptor at 10 uM relative to control
[33] = target: L-type calcium channel, dihydropyridine site (Rattus norvegicus, UniProt P22002+P27732+Q02485); test: Inhibition of rat L-type calcium channel dihydropyridine site at 10 uM relative to control; type: protein assay
[34] = target: Muscarinic acetylcholine receptor M3 (Homo sapiens) (UniProt P20309); test: Inhibition of human muscarinic M3 receptor at 10 uM relative to control
[35] = target: Metabotropic glutamate receptor 7 (Rattus norvegicus) (UniProt P35400); test: Negative allosteric modulation of rat mGlu7 receptor expressed in HEK/GIRK cells assessed as inhibition of L-AP4 induced-calcium mobilization preincubated for 2.3 mins followed by L-AP4 addition measured for 2.6 mins by Fluo-4 AM dye based fluorescence assay; type: functional, cell-based
[36] = target: Beta-2 adrenergic receptor (Homo sapiens) (UniProt P07550); test: Inhibition of human adrenergic beta2 receptor at 10 uM relative to control
[37] = target: Interleukin-1 receptor type 1 (Mus musculus) (UniProt P13504); test: Inhibition of mouse IL1 receptor at 10 uM relative to control
Mus musculus [38] = species on record: Mus musculus; test: Inhibition of mouse phorbol ester receptor at 10 uM relative to control

Chain of Metabotropic glutamate receptor 7 (Rattus norvegicus) (P35400 whole entry): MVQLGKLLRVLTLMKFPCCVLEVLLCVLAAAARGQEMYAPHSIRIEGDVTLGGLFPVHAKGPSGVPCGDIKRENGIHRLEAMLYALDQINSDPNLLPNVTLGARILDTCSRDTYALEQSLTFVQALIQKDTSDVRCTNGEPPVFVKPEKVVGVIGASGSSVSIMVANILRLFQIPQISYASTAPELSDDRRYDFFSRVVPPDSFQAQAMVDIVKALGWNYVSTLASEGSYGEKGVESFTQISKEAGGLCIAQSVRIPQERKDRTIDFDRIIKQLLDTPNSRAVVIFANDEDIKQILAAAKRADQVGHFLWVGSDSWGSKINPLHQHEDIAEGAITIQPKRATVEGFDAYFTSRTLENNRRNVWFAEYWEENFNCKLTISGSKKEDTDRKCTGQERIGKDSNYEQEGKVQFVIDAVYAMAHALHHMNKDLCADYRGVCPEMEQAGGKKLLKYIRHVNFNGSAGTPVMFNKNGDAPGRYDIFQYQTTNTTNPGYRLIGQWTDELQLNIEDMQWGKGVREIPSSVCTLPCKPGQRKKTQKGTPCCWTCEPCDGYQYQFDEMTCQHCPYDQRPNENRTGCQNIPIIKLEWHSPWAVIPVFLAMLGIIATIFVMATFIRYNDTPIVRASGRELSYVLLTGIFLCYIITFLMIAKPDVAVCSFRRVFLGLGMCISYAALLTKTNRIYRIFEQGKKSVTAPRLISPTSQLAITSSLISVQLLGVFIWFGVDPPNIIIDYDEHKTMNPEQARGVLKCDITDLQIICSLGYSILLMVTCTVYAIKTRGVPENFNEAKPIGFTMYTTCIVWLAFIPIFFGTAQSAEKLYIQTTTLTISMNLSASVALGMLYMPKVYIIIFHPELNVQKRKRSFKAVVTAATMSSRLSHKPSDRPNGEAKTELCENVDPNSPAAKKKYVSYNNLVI
Chain of Sodium-dependent serotonin transporter (Homo sapiens) (P31645 whole entry, looked up): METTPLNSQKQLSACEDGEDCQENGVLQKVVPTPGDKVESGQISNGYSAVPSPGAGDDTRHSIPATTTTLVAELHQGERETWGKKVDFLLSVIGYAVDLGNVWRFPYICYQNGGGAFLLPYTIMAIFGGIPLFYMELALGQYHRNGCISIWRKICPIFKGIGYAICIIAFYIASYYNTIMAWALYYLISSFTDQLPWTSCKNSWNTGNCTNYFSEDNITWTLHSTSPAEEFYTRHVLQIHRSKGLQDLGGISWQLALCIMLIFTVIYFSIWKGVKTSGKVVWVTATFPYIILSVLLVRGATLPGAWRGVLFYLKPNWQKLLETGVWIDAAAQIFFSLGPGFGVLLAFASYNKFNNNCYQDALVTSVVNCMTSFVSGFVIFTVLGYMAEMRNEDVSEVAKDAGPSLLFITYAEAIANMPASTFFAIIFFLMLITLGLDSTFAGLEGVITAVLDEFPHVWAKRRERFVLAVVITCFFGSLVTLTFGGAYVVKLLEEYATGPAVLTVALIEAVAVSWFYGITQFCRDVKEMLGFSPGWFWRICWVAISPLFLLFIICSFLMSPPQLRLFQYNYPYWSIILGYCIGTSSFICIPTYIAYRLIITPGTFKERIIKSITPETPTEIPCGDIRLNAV
Chain of Neuropeptide Y receptor type 1 (Homo sapiens) (P25929 whole entry): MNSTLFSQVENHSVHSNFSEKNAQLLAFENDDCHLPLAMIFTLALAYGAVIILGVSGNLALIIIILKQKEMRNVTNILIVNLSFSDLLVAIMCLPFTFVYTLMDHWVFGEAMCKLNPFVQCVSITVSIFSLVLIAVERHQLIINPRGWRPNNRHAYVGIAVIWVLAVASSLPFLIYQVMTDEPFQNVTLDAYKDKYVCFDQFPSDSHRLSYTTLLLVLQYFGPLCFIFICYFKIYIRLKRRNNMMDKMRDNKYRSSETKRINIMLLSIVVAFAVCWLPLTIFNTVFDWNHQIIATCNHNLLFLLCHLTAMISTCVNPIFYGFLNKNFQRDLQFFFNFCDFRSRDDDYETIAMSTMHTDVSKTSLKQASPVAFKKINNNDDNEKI
Chain of Cytochrome P450 2D6 (P10635 whole entry): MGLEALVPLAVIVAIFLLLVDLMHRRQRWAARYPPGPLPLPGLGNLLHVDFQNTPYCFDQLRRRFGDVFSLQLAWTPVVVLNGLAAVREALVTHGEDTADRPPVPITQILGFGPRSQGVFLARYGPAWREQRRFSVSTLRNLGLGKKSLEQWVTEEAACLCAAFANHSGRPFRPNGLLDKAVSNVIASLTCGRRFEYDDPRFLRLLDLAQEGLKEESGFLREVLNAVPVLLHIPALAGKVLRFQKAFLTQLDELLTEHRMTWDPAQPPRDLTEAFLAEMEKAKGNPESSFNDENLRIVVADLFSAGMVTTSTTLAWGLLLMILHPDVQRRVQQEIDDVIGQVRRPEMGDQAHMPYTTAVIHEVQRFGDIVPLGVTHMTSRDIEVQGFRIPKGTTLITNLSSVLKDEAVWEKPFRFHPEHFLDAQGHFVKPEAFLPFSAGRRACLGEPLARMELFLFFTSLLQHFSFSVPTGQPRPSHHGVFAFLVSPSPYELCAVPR
Chain of Gamma-aminobutyric acid type B receptor subunit 1 (Homo sapiens) (Q9UBS5 whole entry): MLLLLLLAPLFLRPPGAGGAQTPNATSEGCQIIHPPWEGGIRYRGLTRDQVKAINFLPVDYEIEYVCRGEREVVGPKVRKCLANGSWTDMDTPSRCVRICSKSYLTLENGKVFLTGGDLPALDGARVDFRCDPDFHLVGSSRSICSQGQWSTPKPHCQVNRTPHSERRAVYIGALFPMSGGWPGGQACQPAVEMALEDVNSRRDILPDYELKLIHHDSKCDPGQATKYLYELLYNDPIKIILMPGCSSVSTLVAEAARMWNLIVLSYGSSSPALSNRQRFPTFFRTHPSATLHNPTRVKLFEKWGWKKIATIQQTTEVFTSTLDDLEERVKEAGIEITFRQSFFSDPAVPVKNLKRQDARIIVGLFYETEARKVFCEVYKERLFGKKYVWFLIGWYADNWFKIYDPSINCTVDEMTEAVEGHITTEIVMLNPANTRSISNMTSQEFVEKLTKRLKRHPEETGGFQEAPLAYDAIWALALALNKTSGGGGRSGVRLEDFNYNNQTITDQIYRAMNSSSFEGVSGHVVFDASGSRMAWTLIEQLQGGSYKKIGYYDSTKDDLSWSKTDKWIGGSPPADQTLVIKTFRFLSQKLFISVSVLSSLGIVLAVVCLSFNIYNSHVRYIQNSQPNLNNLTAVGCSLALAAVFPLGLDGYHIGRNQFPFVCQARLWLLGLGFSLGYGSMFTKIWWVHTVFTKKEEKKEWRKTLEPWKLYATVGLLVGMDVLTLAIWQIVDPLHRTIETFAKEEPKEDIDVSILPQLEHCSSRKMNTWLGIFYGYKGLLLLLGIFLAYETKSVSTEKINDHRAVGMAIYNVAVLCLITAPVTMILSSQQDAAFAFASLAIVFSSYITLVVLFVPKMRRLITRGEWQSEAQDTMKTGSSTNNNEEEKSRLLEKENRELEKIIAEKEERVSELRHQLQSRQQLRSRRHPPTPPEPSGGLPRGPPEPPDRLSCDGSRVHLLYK
Chain of Interleukin-1 receptor type 1 (Mus musculus) (P13504 whole entry): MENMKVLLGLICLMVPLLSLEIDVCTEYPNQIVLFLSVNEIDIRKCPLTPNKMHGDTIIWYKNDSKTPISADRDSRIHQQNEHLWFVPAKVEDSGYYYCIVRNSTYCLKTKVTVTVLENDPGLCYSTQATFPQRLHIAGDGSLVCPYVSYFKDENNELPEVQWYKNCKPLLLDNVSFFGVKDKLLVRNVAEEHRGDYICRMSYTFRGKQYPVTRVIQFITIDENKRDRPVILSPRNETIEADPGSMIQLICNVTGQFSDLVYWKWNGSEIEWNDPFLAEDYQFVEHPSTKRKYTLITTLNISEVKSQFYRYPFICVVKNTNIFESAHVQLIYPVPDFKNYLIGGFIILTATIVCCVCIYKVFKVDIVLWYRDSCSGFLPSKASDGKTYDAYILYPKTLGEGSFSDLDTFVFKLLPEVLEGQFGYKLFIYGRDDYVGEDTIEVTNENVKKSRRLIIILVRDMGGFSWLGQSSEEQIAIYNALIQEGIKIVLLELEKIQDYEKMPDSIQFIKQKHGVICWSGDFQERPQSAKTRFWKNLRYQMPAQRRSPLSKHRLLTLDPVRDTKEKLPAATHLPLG
Chain of Kappa-type opioid receptor (Homo sapiens) (P41145 whole entry): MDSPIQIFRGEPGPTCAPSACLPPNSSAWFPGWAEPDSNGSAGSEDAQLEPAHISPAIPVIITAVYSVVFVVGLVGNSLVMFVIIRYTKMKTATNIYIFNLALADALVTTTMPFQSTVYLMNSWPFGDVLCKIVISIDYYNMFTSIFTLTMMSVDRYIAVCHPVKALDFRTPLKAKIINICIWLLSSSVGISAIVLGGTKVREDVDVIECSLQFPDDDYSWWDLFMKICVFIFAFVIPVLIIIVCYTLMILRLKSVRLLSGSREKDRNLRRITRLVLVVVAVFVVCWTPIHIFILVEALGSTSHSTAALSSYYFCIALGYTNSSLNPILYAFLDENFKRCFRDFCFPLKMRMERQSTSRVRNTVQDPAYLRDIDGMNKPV
Chain of 5-hydroxytryptamine receptor 2B (Homo sapiens) (P41595 whole entry): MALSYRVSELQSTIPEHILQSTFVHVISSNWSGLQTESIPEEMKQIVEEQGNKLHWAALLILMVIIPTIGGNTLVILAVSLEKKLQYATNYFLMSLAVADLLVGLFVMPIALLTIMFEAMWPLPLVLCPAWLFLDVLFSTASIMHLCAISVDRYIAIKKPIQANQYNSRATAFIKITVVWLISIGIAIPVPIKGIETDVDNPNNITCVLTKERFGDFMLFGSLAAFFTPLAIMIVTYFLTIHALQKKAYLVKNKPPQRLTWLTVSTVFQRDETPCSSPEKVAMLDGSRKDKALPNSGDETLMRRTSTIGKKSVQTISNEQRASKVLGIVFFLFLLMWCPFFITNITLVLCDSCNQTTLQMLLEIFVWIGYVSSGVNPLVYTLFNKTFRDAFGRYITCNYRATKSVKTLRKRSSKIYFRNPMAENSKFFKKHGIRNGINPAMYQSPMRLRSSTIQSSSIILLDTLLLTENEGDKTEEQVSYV

C[C@@H](COc1ccn(-c2ccc(F)cc2)c(=O)c1)Oc1ccccc1
inhibition [1]: inactive
inhibition [2]: > 50%
inhibition (Rattus norvegicus [3]): > 50%
inhibition [4]: > 50%
inhibition (Rattus norvegicus [5]): > 50%
solubility kinetic [6]: 98 µM (≈ 33.3 µg/mL)
inhibition (Rattus norvegicus [7]): > 50%
inhibition [8]: > 50%
inhibition at 10 µM [9]: > 50%
inhibition [10]: > 50%
inhibition [11]: > 50%
inhibition (Rattus norvegicus [12]): > 50%
inhibition (Rattus norvegicus [13]): > 50%
inhibition (Rattus norvegicus [14]): > 50%
inhibition [15]: inactive
inhibition [16]: > 50%
inhibition [17]: > 50%
Activity (Mus musculus [18]): Active
inhibition [19]: > 50%
pIC50 (Cytochrome P450 1A2): < 4.52
inhibition [20]: > 50%
Kp uu [21]: 0.27
inhibition [22]: > 50%
inhibition [23]: > 50%
pIC50 [24]: < 4.52
inhibition [25]: > 50%
Kp [26]: 1.15
inhibition [27]: > 50%
pIC50 (Cytochrome P450 2D6): < 4.52
inhibition [28]: > 50%
inhibition [29]: > 50%
inhibition [30]: > 50%
Kp [31]: 1.2
inhibition [32]: > 50%
inhibition at 10 µM [33]: > 50%
inhibition [34]: > 50%
inhibition [35]: inactive
inhibition [36]: > 50%
inhibition [37]: > 50%
inhibition (Mus musculus [38]): > 50%
